Experiment in all cases: Cell cycle analysis (propidium iodide FACS)
Assay type in all cases: cell-based, human

One assay relates to MiaPaCa2 cells. The conditions noted are these: within 24 hours. On the procedure: (§1) Finally, we sought to determine how JTE-607-mediated depletion of RD histones led to defects in cell viability. As RD histones are required for cell cycle progression, we assessed the effects of JTE-607 on cell cycle distribution. […] In contrast, JTE-607 arrested Panc1 and MiaPaCa2 PDAC cells in S-phase of the cell cycle within 24 hours (FIGS. 7A and 7B). To corroborate the impact of CPSF3 knockdown on cell cycle, CPSF3 was transiently knocked-down with siRNA in Panc1 and HPNE cells (FIGS. 13D, 7C). CPSF3 knockdown induced cell cycle arrest in Panc1 cells with minimal effect on HPNE cells (FIGS. 7D and 7E). However, unlike CPSF3 inhibition-induced cell cycle arrest at S-phase, CPSF3 knockdown cells arrested at G2. […] To more specifically investigate the timing and extent of S-phase arrest upon JTE-607 treatment, BrdU incorporation was examined in a time-dependent manner (FIG. 7F). […] This is in support of previous reports where histone defects slow the progression of cells during S-phase. Therefore, JTE-607 destabilizes chromatin and attenuates PDAC cell proliferation through S-phase cell cycle arrest.
(§2) Cell cycle analysis. Cells were trypsinized and resuspended in 1×PBS, then fixed with ice-cold 70% ethanol for 1 hour at −20° C. Cells were then washed with cold 1×PBS and incubated with RNaseA (200 μg/ml) at 37° C. for 1 hour. Propidium iodide (40 μg/ml) was then added, incubated for 1 hour in the dark and analyzed by FACS at 488 nm. Data were analyzed by FCS express software (v7.06.0015).

In a further assay the test system is Panc1 cells. Conditions: within 24 hours. The method, then: as §1, §2
Another assay relates to HPNE cells. On the procedure:
as §1, §2

The structures appear in SMILES notation.

On to `CCOC(=O)[C@H](Cc1ccccc1)NC(=O)c1cc(Cl)c(OCCN2CCN(C)CC2)c(Cl)c1O` [JTE-607], for which the “cell cycle arrest phase” value with MiaPaCa2 cells and in the assay on Panc1 cells was “S-phase” each time. In addition, in the assay on HPNE cells, the cell cycle distribution entry is “no impact on cell cycle distribution”.

The values are drawn from patent US20230355613A1, “METHODS FOR TREATING PANCREATIC DUCTAL ADENOCARCINOMA” (HEALTH RESEARCH, INC., priority 2022, published 2023).
